Source: paper PMC8456950, “Structure‐Guided Design of G‐Protein‐Coupled Receptor Polypharmacology” (Angewandte Chemie (International Ed. in English), 2021)

Columns and labels:
Human D2R = target: T1, Human D2R (Homo sapiens, UniProt P14416); test: D2R competition binding ([3H]-spiperone displacement); details: radioligand displacement, mean±SEM of three experiments in duplicate; read-out: D2R binding affinity Ki
T1 construct: expressed in transfected cells; host or cells: CHO-D2R #S20 cell line (membranes)
T1 sequence (P14416 whole entry): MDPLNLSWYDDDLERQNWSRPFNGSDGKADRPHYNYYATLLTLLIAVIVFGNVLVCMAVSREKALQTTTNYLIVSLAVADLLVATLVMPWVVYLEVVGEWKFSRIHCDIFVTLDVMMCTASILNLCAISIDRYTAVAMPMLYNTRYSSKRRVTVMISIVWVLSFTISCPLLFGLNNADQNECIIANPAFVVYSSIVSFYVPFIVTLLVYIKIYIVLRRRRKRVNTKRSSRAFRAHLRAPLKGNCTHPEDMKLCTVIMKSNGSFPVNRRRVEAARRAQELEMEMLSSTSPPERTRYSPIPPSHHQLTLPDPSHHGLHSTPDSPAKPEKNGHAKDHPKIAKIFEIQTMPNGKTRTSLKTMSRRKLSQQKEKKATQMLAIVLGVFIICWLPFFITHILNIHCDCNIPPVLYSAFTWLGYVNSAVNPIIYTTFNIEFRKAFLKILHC
Description: Human D2R competition binding experiments w ere carried out in polypropylene 96-well plates. Each well contained 10 µg of membranes from a CHO-D2R #S20 cell line (protein concentration of 3241 µg/ml), 0.4 nM [3H]-spiperone (80. 2 Ci/mmol, 1 mCi/ml, Perkin […]
The reaction mixture (250 µl/well) was incubated at 25°C for 120 min , after which 200 µL was transferred to a GF/C 96 -well plate (Millipore, Madrid, Spain) pretreated with 0. 5% of PEI and treated with binding buffer (50 mM Tris-HCl, 1 mM EDTA, 5 mM MgCl2, 5 mM KCl, 120 mM NaCl, pH=7.4). The […]
samples were filtered and washed four times with 250 µl wash buffer (50 mM Tris-HCl, 0.9% NaCl, pH=7.4) before measuring in a microplate beta scintillation counter (Microbeta Trilux, PerkinElmer, Madrid, Spain). Three independent exp eriments were carried out to calculate Ki values (n=3). […]

H1R = target: T2, H1R (Homo sapiens, UniProt P35367); test: H1R competition binding ([3H]pyrilamine); details: for H1R % displacement at 10 µM: 10 µM compound, n=2
T2 construct: expressed in transfected cells; host or cells: CHO-H1R cell line (membranes)
T2 sequence (P35367 whole entry, species assumed): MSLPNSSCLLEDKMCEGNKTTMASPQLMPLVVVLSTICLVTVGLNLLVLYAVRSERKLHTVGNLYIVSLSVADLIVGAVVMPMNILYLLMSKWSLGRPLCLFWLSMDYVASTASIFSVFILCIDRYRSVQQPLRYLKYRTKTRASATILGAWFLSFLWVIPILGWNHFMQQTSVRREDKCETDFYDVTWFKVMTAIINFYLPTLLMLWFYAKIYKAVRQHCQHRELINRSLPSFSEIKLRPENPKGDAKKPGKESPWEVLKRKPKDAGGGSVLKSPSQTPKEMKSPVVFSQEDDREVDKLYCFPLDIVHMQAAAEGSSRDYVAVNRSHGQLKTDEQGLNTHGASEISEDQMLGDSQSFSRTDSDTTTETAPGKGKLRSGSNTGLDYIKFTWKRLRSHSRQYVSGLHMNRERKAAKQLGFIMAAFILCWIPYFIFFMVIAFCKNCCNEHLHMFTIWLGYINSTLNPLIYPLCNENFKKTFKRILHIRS
Description: H1R competition binding experiments were carried out in polypropylene 96-well plates. Each well contained 50 µg of membranes from a CHO-H1R cell line (protein concentration=3860 µg/ml), 4 nM [3H]pyrilamine (20. 1 Ci/mmol, 1 mCi/ml, Perkin Elmer NET594250UC ), and the compound studied. Non-specific binding was determined in the presence of 10 µM triprolidine (T6764, Sigma Aldrich). The reaction mixture (250 µl/well) was incubated at 27 °C for 60 min, after which 200 µL was transferred to GF/B 96 -well plates (Millipore, Madrid, Spain) pretreated with 0. 1% Tween 20 and assay b uffer (Na+ / K+ phosphate buffer pH=7. 4).
The samples were then filtered and washed fou r times with 250 µl wash buffer (Na+/K+ phosphate buffer, pH=7.4), after which 30 µL Universol (MP Biomedicals, Spain) was added […]
and measurements were performed in a microplate beta scintillation counter (Microbeta Trilux, PerkinElmer, Madrid, Spain). Two independent experiments were carried out to calculate Ki values (n=2).
Data were adjusted to non-linear fitting by using Prism V2.1 (GraphPad Inc, Chicago, USA) and Ki values were calculated by using the Cheng-Prusoff equation25. […]
(§1) KB=I C50/(1+([NECA]/EC50 NECA)). […]

Human A1AR = target: T3, Human A1AR (Homo sapiens, UniProt P30542); test: A1AR competition binding ([3H]-DPCPX); details: for A1AR % displacement at 10 µM: 10 µM compound, n=2
T3 construct: expressed in transfected cells; host or cells: CHO-A1AR cell line (membranes)
T3 sequence (P30542 1-326): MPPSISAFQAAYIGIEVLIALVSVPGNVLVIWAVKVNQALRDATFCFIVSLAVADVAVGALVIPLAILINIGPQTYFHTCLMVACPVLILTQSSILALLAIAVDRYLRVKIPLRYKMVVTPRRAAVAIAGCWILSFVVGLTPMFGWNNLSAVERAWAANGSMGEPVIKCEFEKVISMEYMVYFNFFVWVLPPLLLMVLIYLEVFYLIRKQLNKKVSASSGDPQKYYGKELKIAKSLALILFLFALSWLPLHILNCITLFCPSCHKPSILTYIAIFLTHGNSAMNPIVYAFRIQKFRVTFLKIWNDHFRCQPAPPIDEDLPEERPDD
Description: Human A1AR competition binding experiments were carried out in multiscreen GF/C 96 -well plates (Millipore, Madrid, Spain) pretreated with assay buffer ( 20 mM Hepes, 100 mM NaCl, 10 mM MgCl2, 2 U/ml adeno sine deamina se, pH=7.4). Each well contained 5 µg of membranes from a CHO-A1AR cell line, 1 nM [3H]-DPCPX (137 Ci/mmol, 1 mCi/Ml, Perkin Elmer NET974001MC), and the compound studied. Non-specific binding was determined in the presence of R-PIA 10 µM (Sigma P4532). The reaction mixture (200 µl/well) was incubated at 25°C for 60 min. The samples were then filtered and washed four times with 250 µl wash buffer (20 mM Hepes, 100 mM NaCl, 10 mM MgCl2, pH=7.4) before measuring in a microplate beta scintillati on counter (Microbeta Trilux, PerkinElmer, Madrid, Spain). Two independent experiments were carried out to calculate K i values (n=2). […]

Human A2AAR = Human A2AAR (Homo sapiens, UniProt P29274); test: A2AAR functional assay, inhibition of NECA-elicited cAMP production in CHO-A2A cells; assay type: cell-based; parameters: expressed in transfected cells; details: mean±SEM n=3
Chain of Human A2AAR (P29274 whole entry): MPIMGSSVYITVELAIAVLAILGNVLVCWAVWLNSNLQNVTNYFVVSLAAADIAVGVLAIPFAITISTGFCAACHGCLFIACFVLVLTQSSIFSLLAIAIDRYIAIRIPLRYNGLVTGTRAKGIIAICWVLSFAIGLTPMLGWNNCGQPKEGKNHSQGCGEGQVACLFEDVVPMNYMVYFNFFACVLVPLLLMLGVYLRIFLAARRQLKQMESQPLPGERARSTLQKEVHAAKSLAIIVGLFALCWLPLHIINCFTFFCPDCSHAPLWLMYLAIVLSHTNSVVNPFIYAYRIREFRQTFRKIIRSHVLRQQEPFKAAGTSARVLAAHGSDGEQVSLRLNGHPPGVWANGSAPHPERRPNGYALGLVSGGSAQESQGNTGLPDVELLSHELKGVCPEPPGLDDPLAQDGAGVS
Description: Functional assays. For the human A2AAR, functional experiments measuring cAMP production were carried out in CHO-A2A cell line. The day before the assay, the cells were seeded on a 96-well culture plate (Falcon 353072). The cells were washed with wash buffer (Dulbecco’s modified eagle’s medium nutrient mixture F-12 ham (Sigma D8062), 25 mM Hepes; pH=7.4). Wash buffer was then replaced by incubation buffer (Dulbecco’s modified eagle’s medium nutrient mixture F-12 ham (Sigma D8062), 25 mM Hepes, 20 µM Rolipram, pH=7.4). The studied compounds wer e added and incubated at 37 °C for 15 min. After incubation, NECA (Sigma E2387) was added in several concentrations and incubated at 37 °C for 15 min. After incubation, the amount of cAMP was determined using the cAMP Biotrak Enzymeimmunoassay (EIA) System Kit (GE Healthcare RPN225). Data were adjusted to non-linear fitting by using Prism V2.1 (GraphPad Inc, Chicago USA). K B values were calculated from the IC50 values obtained for each compound by using the formula:
as §1

Row | Ki (Human D2R) [nM] | H1R % displacement at 10 µM (H1R) [%] | A1AR % displacement at 10 µM (Human A1AR) [%] | Kb (Human A2AAR) [nM] | Ki (Human A1AR; mean±SEM of two experiments in duplicate, read-out: A1AR binding affinity Ki) [nM] | Ki (H1R; mean±SEM of two experiments in duplicate, read-out: H1R binding affinity Ki) [nM] | SMILES
1 | 340 ± 40 | 12 ± 3 | – | – | – | – | CCN(CCCCC(=O)Nc1nc2c(Br)cccc2s1)C1Cc2ccccc2C1 [Compound 22]
2 | 230 ± 20 | – | 22 ± 1 | 3600 ± 2000 | – | – | CCCN(CCCCC(=O)Nc1nc2c(OC)cccc2s1)C1Cc2ccccc2C1 [Compound 26]
3 | 530 ± 180 | 40 ± 1 | 37 ± 4 | 510 ± 240 | – | – | CCCN(CCCCC(=O)Nc1nc2c(Br)cccc2s1)C1Cc2ccccc2C1 [Compound 27]
4 | 370 ± 30 | 40 ± 3 | 35 ± 1 | 720 ± 250 | > 10000 | > 10000 | CCCN(CCCCC(=O)Nc1nc2c(OC)ccc(OC)c2s1)C1Cc2ccccc2C1 [Compound 30]
